Columns and labels:
Assay type in all cases: cell-based
[1] = test system: SDF-1 induced Ca flux in SUP-T1 cells; test: Inhibition of chemokine (SDF-1) induced Ca flux measured on a FLIPR; details: Homo sapiens
Summary of the method: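 Fluo-3-loaded SUP-T1 cells (3×10^5 per well) preincubated with compound for 10 min at 37° C in HBSS/20 mM Hepes/0.2% BSA, pH 7.4, then stimulated with SDF-1. Fluorescence read on a FLIPR for 4 min after a 20-second baseline.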

[2] = test system: HIV-1 NL4.3 or IIIB; test: Inhibition of HIV-1 (NL4.3 or IIIB, CXCR4 using) replication in MT-4 cells, MTT viability; details: Human immunodeficiency virus 1, IIIB, MT4, concentration protecting 50% of virus-infected cells against viral cytopathicity
Summary of the method: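 MT-4 cells infected at MOI 0.01 (100 × CCID50) with test compound at various concentrations, cytotoxicity run in parallel on uninfected cells. Viable cells quantified by MTT colorimetry after 5 days of proliferation. EC50 is the concentration protecting 50% of infected cells from viral cytopathicity.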

[3] = test system: HIV-1 BaL; test: Inhibition of HIV-1 BaL (CCR5 using) replication in PHA-stimulated PBMC's, viral p24 antigen expression; details: Human immunodeficiency virus 1, BAL

| EC50 [2] | EC50 [3] | SMILES | inhibition at 20 µg/mL [1] |
| --- | --- | --- | --- |
| < 20 µg/mL | < 20 µg/mL | Oc1ccccc1CNCc1ccc(CN(Cc2nc3ccccc3[nH]2)C2CCCc3cccnc32)cc1 (stereo not drawn) [Example 68, N-(2-hydroxyphenylmethyl)-N′-(1H-benzimidazol-2-ylmethyl)-N′-(5,6,7,8-tetrahydro-8-quinolinyl)-1,4-benzenedimethanamine] | > 20% |
| < 20 µg/mL | < 20 µg/mL | c1ccc(CNCc2ccc(CN[C@H]3CCCC[C@H]3NCc3ccccn3)cc2)nc1 [Example 134, N-(2-pyridinylmethyl)-N′-[cis-2-[(N-pyridin-2-ylmethyl)amino]cyclohexyl]-1,4-benzenedimethanamine] | > 20% |

— patent US7084155B2, “Chemokine receptor binding heterocyclic compounds” (AnorMED, priority 2000, dated 2006)
